According to ChEMBL document CHEMBL1201862, “PubChem BioAssay data set” (2004):
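Five concentrations, 48 hours, 96-well plates. At the GI50, growth is halved.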 The source made the active and inactive calls. Cut-off read from the data, not from the text of the source: active = GI50 up to about 1.1 µM and inactive = higher.

How the values were obtained:
Experiment in all cases: growth of human tumour cells (NCI), 48 h
[1] = system: A498
[2] = system: A549
[3] = system: ACHN
[4] = system: CAKI-1
[5] = system: CCRF-CEM
[6] = system: COLO 205
[7] = system: DLD-1
[8] = system: DMS-273
[9] = system: EKVX
[10] = system: HCC 2998
[11] = system: HCT-116
[12] = system: HCT-15
[13] = system: HL-60
[14] = system: HOP-62
[15] = system: HOP-92
[16] = system: HT-29
[17] = system: IGROV-1
[18] = system: K562
[19] = system: KM-20L2
[20] = system: KM12
[21] = system: LOX IMVI
[22] = system: LXFL 529
[23] = system: M14
[24] = system: M19-MEL
[25] = system: MOLT-4
[26] = system: NCI-H226
[27] = system: NCI-H23
[28] = system: NCI-H460
[29] = system: NCI-H522
[30] = system: OVCAR-4
[31] = system: OVCAR-5
[32] = system: OVCAR-8
[33] = system: RPMI-8226
[34] = system: RXF 393
[35] = system: SF-268
[36] = system: SF-295
[37] = system: SF-539
[38] = system: SK-MEL-28
[39] = system: SK-MEL-2
[40] = system: SK-MEL-5
[41] = system: SK-OV-3
[42] = system: SN12C
[43] = system: SNB-19
[44] = system: SNB-75
[45] = system: SNB-78
[46] = system: SR
[47] = system: SW-620
[48] = system: TK-10
[49] = system: U-251
[50] = system: UACC-257
[51] = system: UACC-62
[52] = system: UO-31
[53] = system: 786-0
[54] = system: BT-549
[55] = system: DMS-114
[56] = system: HOP-18
[57] = system: Hs-578T
[58] = system: MCF7
[59] = system: Malme-3M
[60] = system: NCI/ADR-RES
[61] = system: OVCAR-3
[62] = system: PC-3

## COc1cccc(NC(=O)C(=O)C(C(=O)c2ccccc2F)C2OC(=O)c3ccccc32)c1 (configuration not stated)
[1]
  GI50: 72.6 µM (inactive)
[2]
  GI50: 45.3 µM (inactive)
[3]
  GI50: 45.1 µM (inactive)
[4]
  GI50: 52.5 µM (inactive)
[5]
  GI50: 16.9 µM (inactive)
[6]
  GI50: 14.6 µM (inactive)
[7]
  GI50: 36.6 µM (inactive)
[8]
  GI50: 29 µM (inactive)
[9]
  GI50: 41.8 µM (inactive)
[10]
  GI50: 17.9 µM (inactive)
[11]
  GI50: 20 µM (inactive)
[12]
  GI50: 28.7 µM
[13]
  GI50: 20.7 µM (inactive)
[14]
  GI50: 42.2 µM (inactive)
[15]
  GI50: > 100 µM (inactive)
[16]
  GI50: 34.3 µM (inactive)
[17]
  GI50: 56.6 µM (inactive)
[18]
  GI50: 30.9 µM (inactive)
[19]
  GI50: 33.3 µM (inactive)
[20]
  GI50: 45.8 µM (inactive)
[21]
  GI50: 29.9 µM (inactive)
[22]
  GI50: 33.6 µM (inactive)
[23]
  GI50: 48 µM (inactive)
[24]
  GI50: 22.9 µM (inactive)
[25]
  GI50: 25.4 µM (inactive)
[26]
  GI50: 28 µM (inactive)
[27]
  GI50: 29.6 µM (inactive)
[28]
  GI50: 35.1 µM (inactive)
[29]
  GI50: 16.1 µM (inactive)
[30]
  GI50: 36.4 µM (inactive)
[31]
  GI50: 59 µM (inactive)
[32]
  GI50: 21.8 µM (inactive)
[33]
  GI50: 21.6 µM (inactive)
[34]
  GI50: 28.1 µM (inactive)
[35]
  GI50: 30.5 µM (inactive)
[36]
  GI50: 37.7 µM (inactive)
[37]
  GI50: 21.3 µM (inactive)
[38]
  GI50: 58.6 µM (inactive)
[39]
  GI50: 22.5 µM (inactive)
[40]
  GI50: 52 µM (inactive)
[41]
  GI50: 35.2 µM (inactive)
[42]
  GI50: 18.7 µM (inactive)
[43]
  GI50: 24.9 µM (inactive)
[44]
  GI50: 24.9 µM (inactive)
[45]
  GI50: 15.5 µM (inactive)
[46]
  GI50: 16.6 µM (inactive)
[47]
  GI50: 42.6 µM (inactive)
[48]
  GI50: > 100 µM (inactive)
[49]
  GI50: 15.5 µM (inactive)
[50]
  GI50: > 100 µM (inactive)
[51]
  GI50: 26 µM (inactive)
[52]
  GI50: 34.4 µM (inactive)

## N#CC1Sc2ccccc2-n2cccc21 (configuration not stated)
[1]
  GI50: 67.6 µM (inactive)
[2]
  GI50: 45 µM (inactive)
[5]
  GI50: 70.8 µM (inactive)
[8]
  GI50: 44 µM (inactive)
[9]
  GI50: 61.2 µM (inactive)
[13]
  GI50: 22.8 µM (inactive)
[14]
  GI50: > 100 µM (inactive)
[15]
  GI50: 42.6 µM (inactive)
[16]
  GI50: > 100 µM (inactive)
[17]
  GI50: > 100 µM (inactive)
[18]
  GI50: 26.7 µM (inactive)
[20]
  GI50: 85.7 µM (inactive)
[23]
  GI50: > 100 µM (inactive)
[24]
  GI50: > 100 µM (inactive)
[25]
  GI50: 58.9 µM (inactive)
[26]
  GI50: 4.98 µM (inactive)
[27]
  GI50: 63.7 µM (inactive)
[28]
  GI50: > 100 µM (inactive)
[29]
  GI50: 36.1 µM (inactive)
[31]
  GI50: 24.3 µM (inactive)
[34]
  GI50: 23.2 µM (inactive)
[35]
  GI50: 25.1 µM (inactive)
[38]
  GI50: > 100 µM (inactive)
[41]
  GI50: 67.3 µM (inactive)
[43]
  GI50: > 100 µM (inactive)
[45]
  GI50: 34.7 µM (inactive)
[46]
  GI50: 37.6 µM (inactive)
[48]
  GI50: 80 µM (inactive)
[49]
  GI50: > 100 µM (inactive)
[51]
  GI50: 30.3 µM (inactive)
[52]
  GI50: 25.4 µM (inactive)

## COc1cc(CNc2ccc(SC)cc2)cc(OC)c1OC
[53]
  GI50: 14.6 µM (inactive)
[1]
  GI50: 22 µM (inactive)
[2]
  GI50: 10 µM (inactive)
[54]
  GI50: 3.18 µM (inactive)
[5]
  GI50: 12.2 µM (inactive)
[6]
  GI50: 4.48 µM (inactive)
[55]
  GI50: 5.15 µM (inactive)
[8]
  GI50: 3.08 µM (inactive)
[9]
  GI50: 49.7 µM (inactive)
[11]
  GI50: 6.93 µM (inactive)
[12]
  GI50: 4.08 µM
[13]
  GI50: 4.84 µM (inactive)
[56]
  GI50: 33.5 µM (inactive)
[16]
  GI50: 4.39 µM (inactive)
[57]
  GI50: 12.4 µM (inactive)
[19]
  GI50: 4.3 µM (inactive)
[21]
  GI50: 9.42 µM (inactive)
[22]
  GI50: 18.4 µM (inactive)
[23]
  GI50: 4.38 µM (inactive)
[58]
  GI50: 5.69 µM (inactive)
[25]
  GI50: 4.85 µM (inactive)
[59]
  GI50: 11 µM (inactive)
[28]
  GI50: 7.1 µM (inactive)
[29]
  GI50: 4.92 µM (inactive)
[60]
  GI50: 3.78 µM (inactive)
[61]
  GI50: 7.26 µM (inactive)
[30]
  GI50: 46.9 µM (inactive)
[31]
  GI50: 32.1 µM (inactive)
[62]
  GI50: 12.4 µM (inactive)
[33]
  GI50: 11.9 µM (inactive)
[39]
  GI50: 4.88 µM (inactive)
[45]
  GI50: 48.3 µM (inactive)
[47]
  GI50: 4.02 µM (inactive)
[52]
  GI50: 20 µM (inactive)
